Test results as given in patent US4638088A, “Pesticidal biphenylyloxy and biphenylylalkoxy aryl acyl urea compounds” (Union Carbide Corporation, priority 1984, dated 1987).
≈ marks a conversion by molar mass, not a printed value. Where two headings read alike, the source gives them in different places.

How the values were obtained:
[1] = test system: Heliothis zea; test: Tobacco Budworm and Cotton Bollworm Leaf Spray Bait Test (cotton bollworm); format: in vivo; details: Helicoverpa zea, 120 h, read-out: LC50 values, Heliothis Zea
Protocol: (§1) Suspension of the test compounds were prepared by dissolving one gram of compound in 50 milliliters of acetone in which had been dissolved 0.1 gram (10 percent of the weight of compound) of an alkylphenoxy polyethoxyethanol surfactant, as an emulsifying or dispersing agent. The resulting solution was mixed into 150 milliliters of water to give roughly 200 milliliters of a suspension containing the compound in finely divided form. The thus-prepared stock suspension contained 0.5 percent by weight of compound. The test concentrations in parts per million by weight employed in the tests described hereinbelow were obtained by appropriate dilutions of the stock suspension with water. Certain of the test compounds were also prepared by dissolving 375 mg of compound in 7.5 ml of dimethylformamide. Fifteen milliliters of acetone containing 37.5 mg (10 percent of the weight of test compound) of an alkylphenoxy polyethoxyethanol surfactant, as a wetting/emulsifying/dispersing agent was added to the dimethylformamide solution. Fifty-two and one-half milliliters of water wasa mixed into the dimethylformamide-acetone mixture to give roughly 75 ml of a suspension containing the compound in solution or in finely divided form. The thus prepared stock suspension contained 0.5 percent by weight of compound. The test procedures were as follows:
(§2) Second instar larvae of the tobacco budworm (weighing about 4.5 mg) (Heliothis virescens, F.) and the cotton bollworm (weighing about 2.5 mg) (Heliothis zea, (Boddie)), obtained commercially and reared on artificial diet at a temperature of 80°±5° F. and a relative humidity of 50±5 percent, constituted the test insects.
(§3) Using a procedure similar to the above, but substituting cotton plants for snapbeans, treated and dried cotton leaves were introduced into 9 cm Petri dishes which were organized into groups of 10-dish sets. One randomly selected larvae was introduced into each dish of a ten dish set and the dishes were closed. The closed dishes were labelled and held at 80°±5° F. for five days. Larvae which were unable to move the length of the body, even upon stimulation, were considered dead. Percent mortality was recorded for various concentration levels. LC50 or concentration required to kill 50 percent of the larvae was determined from the mortality figures.

[2] = test system: Heliothis virescens; test: Tobacco Budworm and Cotton Bollworm Leaf Spray Bait Test (tobacco budworm); format: in vivo; details: 120 h, read-out: LC50 values, Heliothis Virescens
Protocol: as §1, §2, §3

[3] = test system: southern armyworm; test: Southern Armyworm Leaf Spray Bait Test; format: in vivo; details: Spodoptera eridania, 120 h, read-out: Activity at 500 ppm, SAW, 500 ppm; Southern Armyworm larvae; up to five days
Protocol: as §1
Larvae of the southern armyworm (Spodoptera eridania, (Cram.), reared on Tendergreen bean plants at a temperature of 80°±5° F. and a relative humidity of 50±5 percent, constituted the test insects.
Potted Tendergreen bean plants of standarad height and age were placed on a revolving turntable and sprayed with 100-110 milliliters of test compound formulation by use of a DeVilbiss spray gun set at 40 psig air pressure. This application, which lasted 25 seconds, was sufficient to wet plants to run-off. As a control, 100-110 milliliters of a water-acetone-emulsifier solution containing no test compound was also sprayed on infested plants. When dry, the paired leaves were separated and each one was placed in a 9 centimeter Petri dish lined with moistened filter paper. Five randomly selected larvae were introduced into each dish and the dishes were closed. The closed dishes were labeled and held at 80°-85° F. for up to five days. Although the larvae could easily consume the whole leaf within twenty-four hours, no more food was added. Larvae which were unable to move the length of the body, even upon stimulation by prodding, were considered dead. Percent mortality was recorded for various concentration levels.

[4] = test system: Mexican bean beetle; test: Mexican Bean Beetle Leaf Spray Test; format: in vivo, Epilachna varivestic; details: Epilachna varivestis, 120 h, Mexican Bean Beetle larvae, five days, read-out: Activity at 500 ppm, MBB
Protocol: as §1
Fourth instar larvae of the Mexican bean beetle (Epilachna varivestic, Muls.), reared on Tendergreen bean plants at a temperature of 80°±5° F. and 50±5 percent relative humidity, were the test insects. For certain of the tests second instar larvae (weighting about 6 mg) of the Mexican bean beetle (Epilachna varaivestis, Muls.), reared on Sieva Pole lime bean plants at a temperature of 80°±5° F. and 50±5 percent relative humidity, were the test insects.
The test compounds were formulated by diluting the stock suspension with water to give a suspension containing 500 parts of test compound per million parts of final formulation. Potted Tendergreen bean plants of standard height and age were placed on a revolving turntable and sprayed with 100-110 milliliters of test compound formulation by use of a DeVilbiss spray gun set at 40 psig air pressure. This application, which lasted 25 seconds, was sufficient to wet plants to run-off. As a control, 100-110 milliliters of a water-acetone-emulsifier solution containing no test compound was also sprayed on infested plants. When dry, the paired leaves were separated and each was placed in a 9 centimeter Petri dish lined with moistened filter paper. Five randomly selected larvae were introduced into each dish, and the dishes were closed. The closed dishes were labeled and held at a temperature of 80°±5° F., for five days. Although the larvae could easily consume the leaf within 24 to 48 hours, no more food was added. Larvae which were unable to move the length of the body, even upon stimulation, were considered dead. Percent mortality was recorded for various concentration levels.

[5] = test system: two-spotted mite; test: Mite Larvacidal Test Method; format: in vivo; details: Tetranychus urticae, 144 h, two-spotted mite larvae, five to six days, read-out: Mortality Rating at 500 ppm, Larvae
Protocol: Then the larvae are transferred to bean plants 6-8 inches in height. A sufficient number of larvae for testing (50-100) were transferred from TEPP treated leaves to the fresh plants in 24 hours.
Infested Tendergreen bean plants are placed on a revolving turntable. Test compounds are formulated with DMF, acetone, and a 3 to 1 mixture of Triton 172 and 152 (alkylphenoxy polyethoxyethanol surfactant mixture), respectively and then diluted in water to appropriate concentrations of chemical for application to the infested plants by use of a DeVilbiss spray gun with air pressure set at 40 pounds. The volume of 100 milliliters is sufficient to wet the plants to run off. A blank formulation is used for the control.
The treated plants are held at 80°±5° F. and 50±5 percent relative humidity for a period of five to six days, when mortality counts of the larvae are made.

[6] = Heliothis Zea, second instar larvae, five days

Row | SMILES | mortality at 500 ppm [3] [%] | mortality at 500 ppm [4] [%] | other results
1 | Cc1ccc(Oc2ccc(NC(=O)NC(=O)c3c(F)cccc3F)cc2Cl)c(C)c1 [Comparative Example J, reference compound] |  |  | LC50 [1, 6]: > 100 µg/mL; LC50 [2]: > 100 µg/mL
2 | O=C(NC(=O)c1c(F)cccc1F)Nc1cc(Cl)c(Oc2cccc3ccccc23)c(Cl)c1 [Comparative Example K, reference compound] |  |  | LC50 [1, 6]: 30 µg/mL (≈ 61.6 µM); LC50 [2]: 500 µg/mL (≈ 1030 µM)
3 | Cc1cc(NC(=O)NC(=O)c2ccccc2Cl)c(C)c(Cl)c1Oc1ccc(Br)cc1-c1ccccc1 [Example 24] | 71 to 100 | 0 to 30 | 
4 | Cc1cc(NC(=O)NC(=O)c2c(Cl)cccc2Cl)c(C)c(Cl)c1Oc1ccccc1-c1ccccc1 [Example 4] | 71 to 100 | 71 to 100 | 
5 | Cc1cc(NC(=O)NC(=O)c2ccccc2Cl)c(C)c(Cl)c1Oc1ccccc1-c1ccccc1 [Example 3] | 71 to 100 | 71 to 100 | 
6 | Cc1cc(NC(=O)NC(=O)c2ccccc2Cl)c(C)c(Cl)c1Oc1ccccc1-c1ccccc1 [Example 37] |  |  | LC50 [1, 6]: 1.7 µg/mL (≈ 3.36 µM); LC50 [2]: 4 µg/mL (≈ 7.91 µM)
7 | Cc1cc(NC(=O)NC(=O)c2ccccc2Cl)c(C)c(Cl)c1Oc1ccc(Cl)cc1-c1ccccc1 [Example 17] | 71 to 100 | 71 to 100 | 
8 | Cc1cc(Oc2ccccc2-c2ccccc2)c(Cl)cc1NC(=S)NC(=O)c1ccccc1Cl [Example 23] | 71 to 100 | 71 to 100 | 
9 | Cc1cc(NC(=O)NC(=O)c2ccccc2Cl)c(C)c(Cl)c1Oc1ccc(-c2ccccc2)cc1 [Example 10] | 0 to 30 | 71 to 100 | 
10 | Cc1cc(NC(=O)NC(=O)c2ccccc2F)c(C)c(Cl)c1Oc1ccc(-c2ccccc2)cc1Cl [Example 15] | 71 to 100 | 71 to 100 | 
11 | Cc1cc(NC(=S)NC(=O)c2ccccc2Cl)c(C)c(Cl)c1Oc1ccccc1-c1ccccc1 [Example 7] | 71 to 100 | 71 to 100 | 
12 | Cc1cc(NC(=O)NC(=O)c2c(F)cccc2F)c(C)c(Cl)c1Oc1ccccc1-c1ccccc1 [Example 6] | 71 to 100 | 71 to 100 | 
13 | Cc1cc(NC(=O)NC(=O)c2ccccc2Cl)c(C)c(Cl)c1Oc1ccc(-c2ccccc2)cc1Cl [Example 1, 1-(2-chlorobenzoyl)-3-[2,5-dimethyl-3-chloro-4-(2-chloro-4-phenylphenoxy)phenyl]urea] | 71 to 100 | 71 to 100 | 
14 | Cc1cc(NC(=O)NC(=O)c2c(F)cccc2Cl)c(C)c(Cl)c1Oc1ccccc1-c1ccccc1 [Example 40] |  |  | mortality at 500 ppm [5]: 71 to 100%
15 | Cc1cc(NC(=O)NC(=O)c2c(F)cccc2Cl)c(C)c(Cl)c1Oc1ccc(Cl)cc1-c1ccccc1 [Example 19] | 71 to 100 | 71 to 100 | 
16 | O=C(NC(=O)c1ccccc1Cl)Nc1cc(Cl)c(OCc2ccccc2-c2ccccc2)c(Cl)c1 [Example 2, 1-(2-chlorobenzoyl)-3-[3,5-dichloro-4-(2-phenylphenylmethoxy)phenyl]urea] | 71 to 100 | 71 to 100 | 
17 | Cc1cc(NC(=O)NC(=O)c2c(F)cccc2Cl)c(C)c(Cl)c1Oc1ccc(-c2ccccc2)cc1Cl [Example 16] | 71 to 100 | 71 to 100 | 
18 | Cc1cc(NC(=O)NC(=O)c2c(F)cccc2Cl)c(C)c(Cl)c1Oc1ccc(Br)cc1-c1ccccc1 [Example 26] | 71 to 100 | 71 to 100 | 
19 | O=C(NC(=O)c1c(F)cccc1F)Nc1cc(Cl)c(OCc2ccccc2-c2ccccc2)c(Cl)c1 [Example 28] | 71 to 100 | 71 to 100 | 
20 | O=C(NC(=O)c1c(F)cccc1F)Nc1ccc(Cl)cc1 [Comparative Example A, reference compound] |  |  | LC50 [1]: 500 µg/mL (≈ 1610 µM); LC50 [2]: 31 µg/mL (≈ 99.8 µM)
21 | Cc1cc(NC(=O)NC(=O)c2c(F)cccc2F)c(C)c(Cl)c1Oc1ccc(-c2ccccc2)cc1Cl [Example 14] | 71 to 100 | 71 to 100 | 
22 | O=C(NC(=S)Nc1cc(Cl)c(OCc2ccccc2-c2ccccc2)c(Cl)c1)c1ccccc1Cl [Example 29] | 71 to 100 | 71 to 100 | 
23 | O=C(NC(=O)c1c(F)cccc1F)Nc1cc(Cl)c(OCc2ccccc2-c2ccccc2)c(Cl)c1 [Example 39] |  |  | LC50 [1, 6]: 5 µg/mL (≈ 9.48 µM); LC50 [2]: 16 µg/mL (≈ 30.3 µM)
24 | Cc1cc(NC(=S)NC(=O)c2ccccc2Cl)c(C)c(Cl)c1Oc1ccc(Br)cc1-c1ccccc1 [Example 13] | 0 to 30 | 0 to 30 | 
25 | Cc1cc(NC(=O)NC(=O)c2c(F)cccc2F)c(C)c(Cl)c1Oc1ccc(Cl)cc1-c1ccccc1 [Example 20] | 71 to 100 | 71 to 100 | 
26 | Cc1cc(Oc2ccccc2-c2ccccc2)c(Cl)cc1NC(=O)NC(=O)c1ccccc1Cl [Example 21] | 71 to 100 | 71 to 100 | 
27 | Cc1cc(Oc2ccccc2-c2ccccc2)c(Cl)cc1NC(=O)NC(=O)c1c(F)cccc1F [Example 22] | 71 to 100 | 71 to 100 | 
28 | Cc1cc(NC(=O)NC(=O)c2c(F)cccc2F)c(C)c(Cl)c1Oc1ccc(Cl)cc1-c1ccccc1 [Example 38] |  |  | LC50 [1, 6]: 1.6 µg/mL (≈ 2.96 µM); LC50 [2]: 1.9 µg/mL (≈ 3.51 µM)
29 | Cc1cc(NC(=O)NC(=O)c2c(F)cccc2F)c(C)c(Cl)c1Oc1ccccc1-c1ccccc1 [Example 36] |  |  | LC50 [1, 6]: 2.2 µg/mL (≈ 4.34 µM); LC50 [2]: 9 µg/mL (≈ 17.8 µM)
